Measured values taken from the NIST ThermoML archive (doi:10.1021/je600565m).

Assay: xn = mol fraction of the nth substance listed
Settings: 101 kPa, Liquid

CCO [ethanol] + O
Settings	mass density [kg/m3]	viscosity [mPa·s]
298.15 K, x2 = 0.0998	797.6	–
298.15 K, x2 = 0.2009	–	1.407
298.15 K, x2 = 0.2018	810.78	–
298.15 K, x2 = 0.3001	–	1.558
298.15 K, x2 = 0.3085	826.73	–
298.15 K, x2 = 0.4016	–	1.761
298.15 K, x2 = 0.4145	843.26	–
298.15 K, x2 = 0.5001	858.65	1.946
298.15 K, x2 = 0.6	–	2.166
298.15 K, x2 = 0.6205	885.56	–
298.15 K, x2 = 0.7	–	2.342
298.15 K, x2 = 0.7005	904.69	–
298.15 K, x2 = 0.7992	933.6	–
298.15 K, x2 = 0.8	–	2.39
298.15 K, x2 = 0.9	–	1.923
298.15 K, x2 = 0.9051	965.51	–
318.15 K, x2 = 0.1	780.53	0.848
318.15 K, x2 = 0.2	–	0.951
318.15 K, x2 = 0.201	793.6	–
318.15 K, x2 = 0.3001	807.71	1.003
318.15 K, x2 = 0.4004	823.81	–
318.15 K, x2 = 0.4036	–	1.09
318.15 K, x2 = 0.5002	–	1.168
318.15 K, x2 = 0.5003	840.31	–
318.15 K, x2 = 0.5998	863.31	–
318.15 K, x2 = 0.6	–	1.243
318.15 K, x2 = 0.7	–	1.298
318.15 K, x2 = 0.7001	888.76	–
318.15 K, x2 = 0.8001	919.19	–
318.15 K, x2 = 0.8007	–	1.293
318.15 K, x2 = 0.9	952.47	0.977

CCOC(C)=O [ethyl acetate] + CCO
Settings	mass density [kg/m3]	viscosity [mPa·s]
298.15 K, x1 = 0.1	801.5	0.848
298.15 K, x1 = 0.1992	816.25	–
298.15 K, x1 = 0.2	–	0.707
298.15 K, x1 = 0.3	–	0.614
298.15 K, x1 = 0.3006	829.52	–
298.15 K, x1 = 0.3949	840.61	–
298.15 K, x1 = 0.4	–	0.56
298.15 K, x1 = 0.5	–	0.513
298.15 K, x1 = 0.5001	852.04	–
298.15 K, x1 = 0.5987	861.64	–
298.15 K, x1 = 0.6	–	0.488
298.15 K, x1 = 0.7	870.79	0.465
298.15 K, x1 = 0.7981	879.06	–
298.15 K, x1 = 0.8	–	0.448
298.15 K, x1 = 0.9	886.96	0.434
298.15 K, x1 = 0.9501	890.81	–
318.15 K, x1 = 0.1	783.09	0.624
318.15 K, x1 = 0.2	–	0.535
318.15 K, x1 = 0.2001	796.45	–
318.15 K, x1 = 0.3	808.31	–
318.15 K, x1 = 0.3007	–	0.471
318.15 K, x1 = 0.4	–	0.432
318.15 K, x1 = 0.4001	819.37	–
318.15 K, x1 = 0.5	829.53	0.412
318.15 K, x1 = 0.6	838.75	–
318.15 K, x1 = 0.6003	–	0.387
318.15 K, x1 = 0.7	847.18	–
318.15 K, x1 = 0.7006	–	0.374
318.15 K, x1 = 0.8	–	0.364
318.15 K, x1 = 0.8001	855.16	–
318.15 K, x1 = 0.8999	862.6	–
318.15 K, x1 = 0.9	–	0.36

CCOC(C)=O [ethyl acetate] + O
Settings	mass density [kg/m3]	viscosity [mPa·s]
298.15 K, x2 = 0.0258	–	0.436
298.15 K, x2 = 0.0269	895.32	–
298.15 K, x2 = 0.045	–	0.444
298.15 K, x2 = 0.0469	896.13	–
298.15 K, x2 = 0.0722	897.09	–
298.15 K, x2 = 0.0748	–	0.456
298.15 K, x2 = 0.0853	–	0.46
298.15 K, x2 = 0.0892	897.9	–
298.15 K, x2 = 0.1045	898.48	–
298.15 K, x2 = 0.1053	–	0.468
298.15 K, x2 = 0.1249	899.5	–
298.15 K, x2 = 0.1258	–	0.476
318.15 K, x2 = 0.0249	870.81	–
318.15 K, x2 = 0.025	–	0.362
318.15 K, x2 = 0.0496	–	0.368
318.15 K, x2 = 0.0524	871.8	–
318.15 K, x2 = 0.075	–	0.373
318.15 K, x2 = 0.0766	872.73	–
318.15 K, x2 = 0.0999	–	0.379
318.15 K, x2 = 0.1003	873.94	–
318.15 K, x2 = 0.1254	–	0.385
318.15 K, x2 = 0.1255	875.08	–
